Measured values from patent US20150352037A1, “ANTI-AGING COMPOSITION FOR VITALIZATION OF RETINOIC ACID RECEPTOR THAT CONTAINS MIXED EXTRACT OF CHINESE MATRIMONY VINE AND PINE NEEDLES AS EFFECTIVE COMPONENT” (Amorepacific Corporation, priority 2011, published 2015).

Assays:
Assay type in all cases: cell-based
collagenase = assay: Inhibition of collagenase expression (collagenase production) in human fibroblasts, ELISA absorbance at 405 nm; conditions: 24 h treatment, extracts 100 μg/ml (Example 3: 100 μg/ml of each extract), retinoic acid 1 μM, untreated control = 100
Description: Using the Lycium chinense fruit extract obtained in Example 1, the pine tree extract obtained in Example 2, and a 1:1 (w/w) mixture (Example 3) of a Lycium chinense fruit extract obtained by extracting 100 g of Lycium chinense fruits according to the method of Example 1 and a pine needle extract obtained by extracting 100 g of pine needles according to the method of Example 2, their effects on the inhibition of collagenase expression (collagenase production) were measured in the following manner. As a positive control, retinoic acid known to inhibit collagenase expression was used. […]
Next, the degree of collagenase production in each of the harvested cell cultures was measured using a collagenase measurement device (Amersham Phamasia, USA). […]
The absorbance of the 96-well plate having a yellow color was measured at 405 nm using an absorbance spectrometer, and the expression of collagenase was calculated using the following Equation 1. Herein, the absorbance of an untreated group was used as a control group. That is, the expression of collagenase in the control group was set at 100, and the expression of collagenase in each test group was calculated relative to the control group. […]
wherein A is the absorbance of the cell group treated with each test material, and B is the absorbance of the control group.

[1] = molecular target: T1, retinoic acid receptor α (RAR-α) (Homo sapiens, UniProt P10276); assay: Retinoic acid receptor α transcriptional activity, luciferase reporter in transfected CV-1 cells; conditions: monkey kidney epithelial CV-1 cells, 20 h; extracts 100 μg/ml (Example 3: 100 μg/ml of each extract), retinoic acid 1 μM; corrected with β-galactosidase activity; control = 100
T1 construct: expressed in transfected cells; host or cells: monkey kidney epithelial CV-1 cells
T1 sequence (P10276 1-462): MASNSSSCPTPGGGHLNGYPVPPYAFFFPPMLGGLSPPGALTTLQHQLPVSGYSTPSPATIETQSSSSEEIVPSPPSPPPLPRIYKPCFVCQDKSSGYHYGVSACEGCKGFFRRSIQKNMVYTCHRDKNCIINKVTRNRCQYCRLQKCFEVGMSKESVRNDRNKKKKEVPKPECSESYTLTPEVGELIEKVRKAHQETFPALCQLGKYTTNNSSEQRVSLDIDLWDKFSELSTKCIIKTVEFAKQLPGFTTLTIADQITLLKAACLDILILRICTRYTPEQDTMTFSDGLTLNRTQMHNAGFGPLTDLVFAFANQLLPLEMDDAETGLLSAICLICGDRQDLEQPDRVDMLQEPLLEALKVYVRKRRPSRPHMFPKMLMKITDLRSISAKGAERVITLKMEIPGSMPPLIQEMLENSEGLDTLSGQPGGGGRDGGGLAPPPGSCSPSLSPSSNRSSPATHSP
Description: (§1) Using the Lycium chinense extract obtained in Example 1, the pine needle extract obtained in Example 2, and the Lycium chinense extract/pine needle extract mixture (Example 3) obtained by mixing the extract of Example 1 with the extract of Example 2, their effects on retinoic acid receptor α/γ (RAR-α/γ) transcriptional activities were measured in the following manner. As a positive control, retinoic acid known to activate retinoic acid receptor was used.
(§2) First, monkey kidney epithelial CV-1 cells were seeded into a 24-well plate at a concentration of 4×10^4 cells/well and cultured for 12-16 hours. Before transfection, the plate was washed with phosphate buffered saline (PBS), and then the medium was cultured. […] Then, each of the cell lysates was transferred to a cell culture plate (Costar) for a 96-well luminometer, and luciferase activity for each cell lysate was measured using Luciferase Assay System™ kit (Promega Corporation) according to the manufacturer's instruction. […]
(§3) Next, 50 μl of 1 M sodium carbonate (Na2CO3) solution was added to each well, and the absorbance of each well at 415 nm was measured. The efficiency of transformation in each cell lysate was corrected with the β-galactosidase activity measured as described above, and the relative activity of luciferase to the β-galactosidase activity was calculated and compared between Examples.

[2] = molecular target: T2, retinoic acid receptor γ (RAR-γ) (Homo sapiens, UniProt P13631); assay: Retinoic acid receptor γ transcriptional activity, luciferase reporter in transfected CV-1 cells; conditions: monkey kidney epithelial CV-1 cells, 20 h; extracts 100 μg/ml (Example 3: 100 μg/ml of each extract), retinoic acid 1 μM; corrected with β-galactosidase activity; control = 100
T2 construct: expressed in transfected cells; host or cells: monkey kidney epithelial CV-1 cells
T2 sequence (P13631 1-454): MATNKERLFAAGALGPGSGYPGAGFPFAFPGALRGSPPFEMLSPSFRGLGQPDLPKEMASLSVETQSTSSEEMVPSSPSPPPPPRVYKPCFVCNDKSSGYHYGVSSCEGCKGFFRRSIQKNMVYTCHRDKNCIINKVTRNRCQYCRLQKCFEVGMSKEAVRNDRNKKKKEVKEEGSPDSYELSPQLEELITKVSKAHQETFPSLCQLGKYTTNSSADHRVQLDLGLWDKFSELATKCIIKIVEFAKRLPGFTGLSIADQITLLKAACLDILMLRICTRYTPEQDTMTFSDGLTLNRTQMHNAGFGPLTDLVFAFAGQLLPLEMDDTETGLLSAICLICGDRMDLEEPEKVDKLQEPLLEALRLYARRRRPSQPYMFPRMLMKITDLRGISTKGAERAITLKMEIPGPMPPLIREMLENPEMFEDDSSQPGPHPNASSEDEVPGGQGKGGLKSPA
Description: as §1, §2, §3

SMILES: CC1=C(/C=C/C(C)=C/C=C/C(C)=C/C(=O)O)C(C)(C)CCC1 [Retinoic acid, retinoic acid]
- Collagenase expression (%) (collagenase): 51.3%
- Relative activity (%) of luciferase (RAR-α) [1]: 343%
- Relative activity (%) of luciferase (RAR-γ) [2]: 385%
